Data reported in patent US20230058623A1, “NOVEL HETEROARYL-TRIAZOLE COMPOUNDS AS PESTICIDES” (Bayer Aktiengesellschaft, priority 2019, published 2023).

How the values were obtained:
Format in all cases: in vivo
[1] = system: green peach aphid (Myzus persicae); assay: Myzus persicae oral test; settings: 120 h, read-out: activity (mortality)
Method: Solvent: 100 parts by weight acetone
To produce a suitable preparation of active compound, 1 part by weight of active compound is mixed with the stated amount of solvent, and the concentrate is diluted with water to the desired concentration.
50 μL compound solution is filled in microtiter plates and 150 μL IPL41 insect medium (33%+15% sugar) is added to obtain a total volume of 200 μL per well. Afterwards the plates are sealed with parafilm through which a mixed population of the green peach aphid (Myzus persicae) can suck on the compound preparation.
After 5 days mortality in % is determined. 100% means all aphids have been killed and 0% means none of the aphids have been killed.

[2] = system: larvae of the banded cucumber beetle (Diabrotica balteata); assay: Diabrotica balteata spray test; settings: 168 h, after 7 days, wheat seeds, read-out: activity (efficacy: seedlings grown); for pest or weed control at 160 µg/disc, 500 g/ha: application rate 500 g/ha (=160 μg/well); for pest or weed control at 32 µg/disc, 100 g/ha: application rate 100 g/ha (=32 μg/well)
Method: Diabrotica balteata—Spray Test
(§1) To produce a suitable preparation of active compound, 1 part by weight of active compound is mixed with the stated amount of solvent, and the concentrate is diluted with water, containing an emulsifier concentration of 1000 ppm, to the desired concentration. Further test concentrations are prepared by dilution with emulsifier containing water.
Soaked wheat seeds (Triticum aestivum) are placed in a multiple well plate filled with agar and some water and are incubated for 1 day to germinate (5 seeds per well). The germinated wheat seeds are sprayed with a test solution containing the desired concentration of the active ingredient. Afterwards each unit is infected with 10-20 larvae of the banded cucumber beetle (Diabrotica balteata).
After 7 days efficacy in % is determined. 100% means all the seedlings have grown up like in the untreated, uninfected control; 0% means none of the seedlings have grown.

[3] = system: fall armyworm larvae (Spodoptera frugiperda); assay: Spodoptera frugiperda spray test; settings: 168 h, application rate 100 g/ha, after 7 days, maize leaf sections
Method: Spodoptera frugiperda—Spray Test
as §1, with “solvents” for “solvent,”, “and” for “and the concentrate”
Maize (Zea mays) leaf sections are sprayed with a preparation of the active ingredient of the desired concentration. Once dry, the leaf sections are infested with fall armyworm larvae (Spodoptera frugiperda).
After 7 days mortality in % is determined. 100% means all caterpillars have been killed and 0% means none of the caterpillars have been killed.

[4] = system: Rhipicephalus (Boophilus) microplus larvae (strain Parkhurst, resistant against synthetic pyrethroids); assay: Rhipicephalus (Boophilus) microplus in-vitro contact test, larval cattle tick; settings: after 48 hours, read-out: activity (efficacy: larvae dead or moribund); for pest or weed control at 1 µg/cm2, 100 g/ha: application rate 1 μg/cm^2 (=100 g/ha); for pest or weed control at 5 µg/cm2, 500 g/ha: application rate 5 μg/cm^2 (=500 g/ha)
Method: Rhipicephalus (Boophilus) microplus—In-Vitro Contact Tests Larval Cattle Tick (Strain Parkhurst, Resistant Against Synthetic Pyrethroids)
(§2) 9 mg compound is solved in 1 ml acetone and diluted with acetone to the desired concentration. 250 μL of the test solution is filled in 25 mL glass test tubes and homogeneously distributed on the inner walls by rotation and tilting on a shaking device (2 h at 30 rpm). With a compound concentration of 900 ppm, an inner surface of 44.7 cm^2 and a homogeneous distribution, a dose of 5 μg/cm^2 is achieved.
After the solvent has evaporated, each test tube is filled with 20-50 cattle tick larvae (Rhipicephalus microplus), closed with a perforated lid and incubated in a horizontal position at 85% relative humidity and 27° C. in an incubator. After 48 hours efficacy is determined. The larvae are patted on the ground of the tubes and negative geotactic behavior is recorded.
An efficacy of 100% means all larvae are dead or moribund; 0% means no larvae are dead or moribund.

[5] = system: adult cat fleas (Ctenocephalides felis); assay: Ctenocephalides felis in-vitro contact test, adult cat flea; settings: application rate 5 μg/cm^2 (=500 g/ha), after 48 hours, read-out: activity (efficacy: fleas dead or moribund)
Method: Ctenocephalides felis—In-Vitro Contact Tests Adult Cat Flea
as §2, with “mL” for “ml”
After the solvent has evaporated, each test tube is filled with 5-10 adult cat fleas (Ctenocephalides felis), closed with a perforated lid and incubated in a lying position at room temperature and relative humidity. After 48 hours efficacy is determined. The fleas are patted on the ground of the tubes and are incubated on a heating plate at 45-50° C. for at most 5 minutes. Immotile or uncoordinated moving fleas, which are not able to escape the heat by climbing upwards, are marked as dead or moribund.
An efficacy of 100% means all fleas are dead or moribund; 0% means no fleas are dead or moribund.

Cc1nc([C@H](C)NC(=O)c2cc(Cl)cc(C(F)(F)F)c2)n(-c2ccc(C(=O)N3CC(O)C3)cn2)n1 [Example I-21]
mortality at 4 ppm [1]: 100%

C[C@H](NC(=O)c1cc(Cl)cc(C(F)(F)F)c1)c1ncnn1-c1ccc(C(=O)N2[C@@H](C)CCC[C@@H]2C)cn1 [Example I-39]
pest or weed control at 160 µg/disc, 500 g/ha [2]: 100%

C[C@H](NC(=O)c1cc(C(F)(F)F)cc(C(F)(F)F)c1)c1ncnn1-c1ccc(N2CCOCC2)cn1 [Example I-44, N-[(1S)-1-{1-[5-(morpholin-4-yl)pyridin-2-yl]-1H-1,2,4-triazol-5-yl}ethyl]-3,5-bis(trifluoromethyl)benzamide]
pest or weed control at 32 µg/disc, 100 g/ha [2]: 100% | mortality at 100 g/ha [3]: 100% | pest or weed control at 1 µg/cm2, 100 g/ha [4]: 100% | pest or weed control at 5 µg/cm2, 500 g/ha [4]: 100%

C[C@H](NC(=O)c1cc(Cl)cc(C(F)(F)F)c1)c1ncnn1-c1ccc(N2CCCCC2=O)cn1 [Example I-57]
mortality at 4 ppm [1]: 90%

CC(NC(=O)c1cc(F)cc(C#N)c1)c1nc(C(F)F)nn1-c1ccc(C(=O)N2CCOCC2)cn1 (stereo not drawn) [Example I-60]
pest or weed control at 32 µg/disc, 100 g/ha [2]: 100% | pest or weed control at 160 µg/disc, 500 g/ha [2]: 100%

C[C@H](NC(=O)c1cc(C(F)(F)F)cc(C(F)(F)F)c1)c1ncnn1-c1ccc(C(=O)NC2CC(C)(C)OC(C)(C)C2)cn1 [Example I-64]
pest or weed control at 32 µg/disc, 100 g/ha [2]: 100% | pest or weed control at 1 µg/cm2, 100 g/ha [4]: 90% | pest or weed control at 5 µg/cm2, 500 g/ha [4]: 80%

CC1CCN(C(=O)c2ccc(-n3ncnc3[C@H](C)NC(=O)c3cc(C(F)(F)F)cc(C(F)(F)F)c3)nc2)CC1 [Example I-73]
pest or weed control at 32 µg/disc, 100 g/ha [2]: 100% | pest or weed control at 1 µg/cm2, 100 g/ha [4]: 100% | pest or weed control at 5 µg/cm2, 500 g/ha [4]: 100%

Cc1nc([C@H](C)NC(=O)c2cc(C(F)(F)F)cc(C(F)(F)F)c2)n(-c2ccc(C(=O)N3CCC(C)CC3)cn2)n1 [Example I-74]
pest or weed control at 32 µg/disc, 100 g/ha [2]: 100% | pest or weed control at 1 µg/cm2, 100 g/ha [4]: 90% | pest or weed control at 5 µg/cm2, 500 g/ha [4]: 90%

CC(NC(=O)c1cc(Br)cc(Br)c1)c1nc(Br)nn1-c1ccc(C(=O)N2CCOCC2)cn1 (stereo not drawn) [Example I-85]
pest or weed control at 1 µg/cm2, 100 g/ha [4]: 100% | pest or weed control at 5 µg/cm2, 500 g/ha [4]: 100%

C[C@@H]1CN(C(=O)c2ccc(-n3nc(C4CC4)nc3[C@H](C)NC(=O)c3cc(Cl)cc(S(=O)(=O)C4CC4)c3)nc2)C[C@H](C)O1 [Example I-91]
pest or weed control at 32 µg/disc, 100 g/ha [2]: 100% | mortality at 100 g/ha [3]: 100%

C[C@H](NC(=O)c1cc(Cl)cc(S(C)(=O)=O)c1)c1ncnn1-c1ccc(C(=O)N2CCS(=O)(=O)CC2)cn1 [Example I-96]
mortality at 4 ppm [1]: 100%

CON(C)C(=O)c1cnc(-n2nc(C)nc2[C@H](C)NC(=O)c2cc(C(F)(F)F)cc(C(F)(F)F)c2)s1 [Example I-97]
mortality at 4 ppm [1]: 100% | pest or weed control at 32 µg/disc, 100 g/ha [2]: 100% | pest or weed control at 1 µg/cm2, 100 g/ha [4]: 100% | pest or weed control at 5 µg/cm2, 500 g/ha [4]: 100%

Cc1nc([C@H](C)NC(=O)c2cc(C(F)(F)F)cc(C(F)(F)F)c2)n(-c2ccc(C(=O)N3CCOCC3c3ccnn3C)cn2)n1 (stereo partly drawn) [Example I-101]
mortality at 100 g/ha [3]: 100% | pest or weed control at 5 µg/cm2 [5]: 80% | pest or weed control at 1 µg/cm2, 100 g/ha [4]: 80% | pest or weed control at 5 µg/cm2, 500 g/ha [4]: 80%

C[C@H](NC(=O)c1cc(Br)cc(Br)c1)c1ncnn1-c1ccc(N2CCOCC2)cn1 [Example I-103]
pest or weed control at 32 µg/disc, 100 g/ha [2]: 100% | pest or weed control at 1 µg/cm2, 100 g/ha [4]: 90% | pest or weed control at 5 µg/cm2, 500 g/ha [4]: 100%

C[C@H](NC(=O)c1cc(Cl)cc(S(=O)(=O)C(F)(F)F)c1)c1ncnn1-c1ccc(N2CCOCC2)cn1 [Example I-105]
pest or weed control at 32 µg/disc, 100 g/ha [2]: 100% | mortality at 100 g/ha [3]: 83% | pest or weed control at 1 µg/cm2, 100 g/ha [4]: 100% | pest or weed control at 5 µg/cm2, 500 g/ha [4]: 100%

C[C@H](NC(=O)c1cc(C(F)(F)F)cc(C(F)(F)F)c1)c1ncnn1-c1ccc(C(=O)NC2CCOCC2)cn1 [Example I-111]
mortality at 4 ppm [1]: 90% | pest or weed control at 1 µg/cm2, 100 g/ha [4]: 100% | pest or weed control at 5 µg/cm2, 500 g/ha [4]: 100%

C[C@H](NC(=O)c1cc(C(F)(F)F)cc(C(F)(F)F)c1)c1ncnn1-c1ccc(C(=O)NC2CCSCC2)cn1 [Example I-113]
mortality at 4 ppm [1]: 100% | pest or weed control at 1 µg/cm2, 100 g/ha [4]: 100% | pest or weed control at 5 µg/cm2, 500 g/ha [4]: 100%

C[C@H](NC(=O)c1cc(Cl)cc(S(C)(=O)=O)c1)c1ncnn1-c1ccc(C(=O)N2CCOCC2)cn1 [Example I-119]
mortality at 4 ppm [1]: 100%

C[C@H](NC(=O)c1cc(Cl)cc(C(F)(F)F)c1)c1ncnn1-c1ccc(S(=O)(=O)N2CCOCC2)cn1 [Example I-123]
pest or weed control at 32 µg/disc, 100 g/ha [2]: 80% | pest or weed control at 1 µg/cm2, 100 g/ha [4]: 100% | pest or weed control at 5 µg/cm2, 500 g/ha [4]: 100%

C[C@H](NC(=O)c1cc(OC(F)(F)F)cc(C2CC2)c1)c1ncnn1-c1ccc(S(=O)(=O)N2CCOCC2)cn1 [Example I-125]
pest or weed control at 32 µg/disc, 100 g/ha [2]: 100% | pest or weed control at 160 µg/disc, 500 g/ha [2]: 100% | pest or weed control at 1 µg/cm2, 100 g/ha [4]: 100% | pest or weed control at 5 µg/cm2, 500 g/ha [4]: 100%

C[C@H](NC(=O)c1cc(C(F)(F)F)cc(C(F)(F)F)c1)c1ncnn1-c1ccc(S(=O)(=O)N2CCOCC2)cn1 [Example I-127, N-[(1S)-1-{1-[5-(morpholin-4-ylsulfonyl)pyridin-2-yl]-1H-1,2,4-triazol-5-yl}ethyl]-3,5-bis(trifluoromethyl)benzamide]
pest or weed control at 1 µg/cm2, 100 g/ha [4]: 100% | pest or weed control at 5 µg/cm2, 500 g/ha [4]: 100%

C[C@H](NC(=O)c1cc(C(F)(F)F)cc(C(F)(F)F)c1)c1ncnn1-c1ccc(N2CCOCC2=O)cn1 [Example I-128, N-[(1S)-1-{1-[5-(3-oxomorpholin-4-yl)pyridin-2-yl]-1H-1,2,4-triazol-5-yl}ethyl]-3,5-bis(trifluoromethyl)benzamide]
mortality at 4 ppm [1]: 100% | pest or weed control at 1 µg/cm2, 100 g/ha [4]: 100% | pest or weed control at 5 µg/cm2, 500 g/ha [4]: 100%

Cc1nc([C@H](C)NC(=O)c2cc(OC(F)(F)F)cc(C3CC3)c2)n(-c2ccc(C(=O)N3CCOC[C@@H]3C)cn2)n1 [Example I-129]
pest or weed control at 5 µg/cm2 [5]: 100% | pest or weed control at 1 µg/cm2, 100 g/ha [4]: 100% | pest or weed control at 5 µg/cm2, 500 g/ha [4]: 100%

Cc1nc([C@H](C)NC(=O)c2cc(OC(F)(F)F)cc(C3CC3)c2)n(-c2ncc(C(=O)N3CCOCC3)s2)n1 [Example I-137]
mortality at 100 g/ha [3]: 100%

C[C@@H]1CN(C(=O)c2cnc(-n3ncnc3[C@H](C)NC(=O)c3cc(OC(F)(F)F)cc(S(C)(=O)=O)c3)cn2)C[C@H](C)O1 [Example I-142]
mortality at 100 g/ha [3]: 100%

C[C@H](NC(=O)c1cc(C(F)(F)F)cc(C(F)(F)F)c1)c1ncnn1-c1cnc(C(=O)N2CCCC2)cn1 [Example I-144]
pest or weed control at 32 µg/disc, 100 g/ha [2]: 100% | mortality at 100 g/ha [3]: 100%

C[C@@H]1CN(C(=O)c2cnc(-n3ncnc3[C@H](C)NC(=O)c3cc(C(F)(F)F)cc(C(F)(F)F)c3)nc2)C[C@H](C)O1 [Example I-146]
pest or weed control at 32 µg/disc, 100 g/ha [2]: 100% | mortality at 100 g/ha [3]: 100%
